ChEMBL document CHEMBL3870356, “Investigation of a Bicyclo[1.1.1]pentane as a Phenyl Replacement within an LpPLA2 Inhibitor” (ACS Med Chem Lett, 2017)
≈ marks a conversion by molar mass, not a printed value.

How the values were obtained:
[1] = Thermodynamic solubility of the compound in fasted state simulated intestinal fluid; type: ADME; conditions: read-out: Therm_solubility
[2] = Kinetic solubility of the compound by chemiluminescent nitrogen detection assay
[3] = Lipophilicity, logD of the compound at pH 7.4 by chromatography; type: physicochemical; conditions: buffer
[4] = Clearance in human liver microsomes; type: ADME
[5] = Permeability of the compound at pH 7.4 by PAMPA; type: ADME; conditions: read-out: permeability
[6] = target: T1, Platelet-activating factor acetylhydrolase (Homo sapiens, UniProt Q13093); test: Inhibition of human recombinant LpPLA2
T1 sequence (Q13093 whole entry): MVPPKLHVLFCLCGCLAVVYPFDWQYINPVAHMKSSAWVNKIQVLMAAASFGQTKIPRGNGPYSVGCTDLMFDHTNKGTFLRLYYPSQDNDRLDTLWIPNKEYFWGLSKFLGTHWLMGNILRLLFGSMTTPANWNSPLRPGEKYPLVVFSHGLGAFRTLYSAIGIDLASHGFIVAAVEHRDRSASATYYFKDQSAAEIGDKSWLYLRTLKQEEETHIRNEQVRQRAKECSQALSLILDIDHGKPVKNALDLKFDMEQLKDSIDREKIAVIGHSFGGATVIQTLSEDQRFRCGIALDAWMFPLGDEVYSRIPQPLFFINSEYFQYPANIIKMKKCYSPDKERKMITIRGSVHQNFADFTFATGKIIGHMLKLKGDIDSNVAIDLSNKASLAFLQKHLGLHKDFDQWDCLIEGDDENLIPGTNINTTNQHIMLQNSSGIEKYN

With `CCN(CC)CCN(Cc1ccc(-c2ccc(C(F)(F)F)cc2)cc1)C(=O)Cn1c(SCc2ccc(F)cc2)nc(=O)c2c1CCC2` [DARAPLADIB] the solubility thermodynamic [1] was 0.399 mg/mL (≈ 598 µM) and the solubility kinetic [2] was 8 µM (≈ 5.33 µg/mL).
With `COCCN1CCC(N(Cc2ccc(-c3ccc(C(F)(F)F)cc3)cc2)C(=O)Cn2c(SCc3cccc(F)c3F)cc(=O)c3ccccc32)CC1` [RILAPLADIB] the solubility thermodynamic [1] was 0.203 mg/mL (≈ 276 µM), the chromatographic logD [3] was 6.74 and the solubility kinetic [2] was < 1 µM.
In the case of `CCN(CC)CCN(CC12CC(c3ccc(C(F)(F)F)cc3)(C1)C2)C(=O)Cn1c(SCc2ccc(F)cc2)nc(=O)c2c1CCC2`, the solubility thermodynamic [1] is reported as > 1 mg/mL, the CLH [4] is reported as 1.22 mL/min/g and the chromatographic logD [3] is reported as 7. For the same compound, the solubility kinetic [2] was 74 µM (≈ 48.6 µg/mL), the Papp [5] was 705 nm/s and the IC50 [6] was 0.398 nM.
Compound `COCCN1CCC(N(CC23CC(c4ccc(C(F)(F)F)cc4)(C2)C3)C(=O)Cn2c(SCc3cccc(F)c3F)cc(=O)c3ccccc32)CC1` has a solubility thermodynamic [1] of 0.635 mg/mL (≈ 875 µM), a CLH [4] of 0.76 mL/min/g and a chromatographic logD [3] of 7.06. It also gave a solubility kinetic [2] of 32 µM (≈ 23.2 µg/mL).
